This test concerns L1210 leukemia ip in BDF1 mice, survival T/C. In words: NCI In Vivo Anticancer Drug Screen. Data for tumor model L1210 Leukemia (intraperitoneal) in B6D2F1 (BDF1) mice. To be noted: endpoint: mean survival time, higher = longer survival. An outline of the steps: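 Transplanted-tumor mice were given test agent; controls received vehicle only. Survival readings from the two groups were divided (treated over control).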

Where [1] appears, read: dose: 100.0 mg/kg/injection, schedule: Q01DX009 (ip), vehicle: Klucel (hydroxypropylcellulose) (HPC).
Where [2] appears, read: dose: 100.0 mg/kg/injection, schedule: Q04DX003 (ip), vehicle: Klucel (hydroxypropylcellulose) (HPC).
[3] abbreviates: dose: 200.0 mg/kg/injection, schedule: Q01DX009 (ip), vehicle: Klucel (hydroxypropylcellulose) (HPC).
Where [4] appears, read: dose: 200.0 mg/kg/injection, schedule: Q04DX003 (ip), vehicle: Klucel (hydroxypropylcellulose) (HPC).
Setting [5] is: dose: 400.0 mg/kg/injection, schedule: Q01DX009 (ip), vehicle: Klucel (hydroxypropylcellulose) (HPC).
The mark [6] stands for this setting: dose: 400.0 mg/kg/injection, schedule: Q04DX003 (ip), vehicle: Klucel (hydroxypropylcellulose) (HPC).
Where [7] appears, read: dose: 100.0 mg/kg/injection, schedule: Q04DX003 (ip), vehicle: saline with Tween-80.
Where [8] appears, read: dose: 200.0 mg/kg/injection, schedule: Q04DX003 (ip), vehicle: saline with Tween-80.
The mark [9] stands for this setting: dose: 400.0 mg/kg/injection, schedule: Q04DX003 (ip), vehicle: saline with Tween-80.
[10] abbreviates: dose: 50.0 mg/kg/injection, schedule: Q01DX001 (ip), vehicle: carboxymethylcellulose (CMC).
Setting [11] is: dose: 100.0 mg/kg/injection, schedule: Q01DX001 (ip), vehicle: carboxymethylcellulose (CMC).
Where [12] appears, read: dose: 200.0 mg/kg/injection, schedule: Q01DX001 (ip), vehicle: carboxymethylcellulose (CMC).
Where [13] appears, read: dose: 400.0 mg/kg/injection, schedule: Q01DX001 (ip), vehicle: carboxymethylcellulose (CMC).

Where “and” joins values, the source holds several entries; their conditions need not be identical. Equal entries are not always repeated. Toxic doses and inconclusive results are not listed.

For `Cc1c(Cl)cccc1NC(=O)COc1ccc(Cl)cc1`, the T/C by setting is: under setting [1], 110 % of control; under setting [2], 93 % of control; under setting [3], 94 % of control; under setting [4], 91 % of control; under setting [5], 95 % of control; under setting [6], 91 % of control.
As for `Cc1cccc(C2CCCC2c2ccccc2)c1` (stereo unspecified), the T/C under setting [1] was 96 % of control; the T/C under setting [2] is 110 % of control; the T/C under setting [3] is 89 % of control; the T/C under setting [4] is 94 % of control; the T/C under setting [5] was 101 % of control; the T/C under setting [6] is 108 % of control.
As for `CCN(CC)CCN1C(=O)C2CCCCC2C1=O` (stereo unspecified), the T/C by setting is: under setting [7], 101 % of control; under setting [8], 101 % of control; under setting [9], 97 % of control.
Take `CC(C(=O)O)N1C(=O)C2C3C=CC(C3)C2C1=O` (stereo unspecified): the T/C by setting is: under setting [7], 94 % of control; under setting [8], 102 % of control; under setting [9], 97 % of control.
Take `COc1ccc(-c2ccccc2)cc1SCCC(=O)O`: the T/C runs as follows: under setting [10], 114 % of control; under setting [11], 101 % of control; under setting [12], 97 % of control; under setting [13], 95 % of control.
In the case of `CNc1ccc(/C=C2\C=Cc3ccccc32)cc1`, the T/C was 95 % of control (dose: 12.0 mg/kg/injection, schedule: Q01DX Z (ip), vehicle: carboxymethylcellulose (CMC)); 98 % of control (dose: 25.0 mg/kg/injection, schedule: Q01DX Z (ip), vehicle: carboxymethylcellulose (CMC)); 101 % of control under setting [10]; 120 % of control (dose: 50.0 mg/kg/injection, schedule: Q01DX Z (ip), vehicle: carboxymethylcellulose (CMC)); 101 % of control under setting [11]; 93 % of control (dose: 100.0 mg/kg/injection, schedule: Q01DX Z (ip), vehicle: carboxymethylcellulose (CMC)). Also, the T/C is 108 % of control under setting [12]; 98 % of control (dose: 200.0 mg/kg/injection, schedule: Q01DX Z (ip), vehicle: carboxymethylcellulose (CMC)); 100 % of control under setting [13].
As to `CC[n+]1cccc2cc(NC(=O)c3ccc(NC(=O)c4ccc(C(=O)Nc5ccc6c(ccc[n+]6CC)c5)cc4)cc3)ccc21`, the T/C by setting is: (dose: 0.5 mg/kg/injection, schedule: Q01DX Z (ip), vehicle: carboxymethylcellulose (CMC)) 94 % of control; (dose: 1.0 mg/kg/injection, schedule: Q01DX Z (ip), vehicle: carboxymethylcellulose (CMC)) 96 % of control; (dose: 2.5 mg/kg/injection, schedule: Q01DX Z (ip), vehicle: carboxymethylcellulose (CMC)) 120 % of control; (dose: 5.0 mg/kg/injection, schedule: Q01DX Z (ip), vehicle: carboxymethylcellulose (CMC)) 156 % of control; (dose: 8.9 mg/kg/injection, schedule: Q01DX Z (ip), vehicle: carboxymethylcellulose (CMC)) 154 % of control; (dose: 13.3 mg/kg/injection, schedule: Q01DX Z (ip), vehicle: carboxymethylcellulose (CMC)) 164 % of control. The T/C was 164 % of control (dose: 20.0 mg/kg/injection, schedule: Q01DX Z (ip), vehicle: carboxymethylcellulose (CMC)) and 174 % of control (dose: 30.0 mg/kg/injection, schedule: Q01DX Z (ip), vehicle: carboxymethylcellulose (CMC)).
`CCn1cnc2cc(N=Cc3ccc(N(CCCl)CCCl)cc3)ccc21`: the T/C by setting is: (dose: 56.3 mg/kg/injection, schedule: Q04DX002 (ip), vehicle: saline) 106 % of control; (dose: 112.5 mg/kg/injection, schedule: Q04DX002 (ip), vehicle: saline) 117 % of control; (dose: 225.0 mg/kg/injection, schedule: Q04DX002 (ip), vehicle: saline) 102 % of control.
For `NC1(C(=O)O)CCCc2ccc(N(CCCl)CCCl)cc21` (stereo unspecified), the T/C by setting is: (dose: 0.45 mg/kg/injection, schedule: Q01DX009 (ip), vehicle: carboxymethylcellulose (CMC)) 101 % of control; (dose: 0.95 mg/kg/injection, schedule: Q01DX009 (ip), vehicle: carboxymethylcellulose (CMC)) 124 % of control; (dose: 1.8 mg/kg/injection, schedule: Q01DX009 (ip), vehicle: carboxymethylcellulose (CMC)) 119 % of control; (dose: 6.0 mg/kg/injection, schedule: Q01DX001 (ip), vehicle: carboxymethylcellulose (CMC)) 121 % of control; (dose: 8.3 mg/kg/injection, schedule: Q01DX009 (ip), vehicle: carboxymethylcellulose (CMC)) 152 % of control; (dose: 10.8 mg/kg/injection, schedule: Q01DX009 (ip), vehicle: carboxymethylcellulose (CMC)) 168 % of control. Besides, the T/C is 114 % of control and 124 % of control (dose: 11.0 mg/kg/injection, schedule: Q01DX001 (ip), vehicle: carboxymethylcellulose (CMC)); 163 % of control and 165 % of control (dose: 12.5 mg/kg/injection, schedule: Q01DX009 (ip), vehicle: carboxymethylcellulose (CMC)); 112 % of control (dose: 16.0 mg/kg/injection, schedule: Q01DX001 (ip), vehicle: carboxymethylcellulose (CMC)); 161 % of control (dose: 18.0 mg/kg/injection, schedule: Q01DX009 (ip), vehicle: carboxymethylcellulose (CMC)); 114 % of control (dose: 48.0 mg/kg/injection, schedule: Q01DX001 (ip), vehicle: carboxymethylcellulose (CMC)); 123 % of control under setting [10].
`COC(=O)C1C2C=CC(C2)C1C(=O)OC` (stereo unspecified): the T/C was 99 % of control under setting [7], 105 % of control under setting [8] and 92 % of control under setting [9].
With `O=S(=O)(O)CCCN1CCCCC1`, the T/C is, setting by setting: (dose: 100.0 mg/kg/injection, schedule: Q01DX009 (ip), vehicle: saline) 107 % of control; (dose: 200.0 mg/kg/injection, schedule: Q01DX009 (ip), vehicle: saline) 112 % of control; (dose: 400.0 mg/kg/injection, schedule: Q01DX009 (ip), vehicle: saline) 98 % of control.
For the molecule `Cc1nccnc1Sc1ccc(Br)cc1`, the T/C reads like this: (dose: 50.0 mg/kg/injection, schedule: Q01DX009 (ip), vehicle: Klucel (hydroxypropylcellulose) (HPC)) 106 % of control; under setting [1], 113 % of control; under setting [3], 106 % of control.
As to `COc1ccc(C(C)c2ccccc2)cc1C(C)c1ccccc1` (stereo unspecified), the T/C runs as follows: (dose: 100.0 mg/kg/injection, schedule: Q01DX009 (ip), vehicle: saline with Tween-80) 93 % of control; under setting [7], 98 % of control; (dose: 200.0 mg/kg/injection, schedule: Q01DX009 (ip), vehicle: saline with Tween-80) 95 % of control; under setting [8], 89 % of control; (dose: 400.0 mg/kg/injection, schedule: Q01DX009 (ip), vehicle: saline with Tween-80) 88 % of control; under setting [9], 98 % of control.
In the case of `Cc1cc([N+](=O)[O-])c(NC2CCCCC2)c([N+](=O)[O-])c1`, the T/C (dose: 100.0 mg/kg/injection, schedule: Q04DX002 (ip), vehicle: Klucel (hydroxypropylcellulose) (HPC)) was 100 % of control; the T/C (dose: 200.0 mg/kg/injection, schedule: Q04DX002 (ip), vehicle: Klucel (hydroxypropylcellulose) (HPC)) was 93 % of control; the T/C (dose: 400.0 mg/kg/injection, schedule: Q04DX002 (ip), vehicle: Klucel (hydroxypropylcellulose) (HPC)) is 96 % of control.
In the case of `CCCCCCCCCCCCCCCCCCOc1ccccn1`, the T/C runs as follows: under setting [1], 97 % of control; under setting [2], 98 % of control; under setting [3], 96 % of control; under setting [4], 93 % of control; under setting [5], 91 % of control; under setting [6], 92 % of control.
For `Nc1ncc(CCCCc2ccccc2)c(=O)[nH]1`, the T/C (dose: 100.0 mg/kg/injection, schedule: Q01DX001 (ip), vehicle: saline with Tween-80) was 96 % of control; the T/C (dose: 200.0 mg/kg/injection, schedule: Q01DX001 (ip), vehicle: saline with Tween-80) was 93 % of control; the T/C (dose: 400.0 mg/kg/injection, schedule: Q01DX001 (ip), vehicle: saline with Tween-80) is 98 % of control.

(Values after PubChem BioAssay AID248 (DTP/NCI, 2004).)
